Consider 51 compounds from PubChem BioAssay AID1996.

A word on the solubility (kinetic): it is solubility judged after dilution from a stock solution rather than from solid.

≈ marks a conversion by molar mass, not a printed value.

For the data set the following is noted: buffer; pH 7.4; 200.0 µM.
As to `O=[N+]([O-])c1cccc(S(=O)(=O)/N=C(/Nc2ccccc2)c2ccccc2)c1`, the solubility (kinetic) came out at 1.8 µg/mL (≈ 4.72 µM).

Take `CC(=O)c1c(-c2ccccc2)c2ccccc2[nH]c1=O`: the kinetic solubility was found to be 15.1 µg/mL (≈ 57.3 µM). Compared with the last compound, the solubility kinetic is about 8.4-fold higher.

In turn, `Cc1c(NC(=O)C(c2ccccc2)c2ccccc2)cccc1C(=O)O` came in with a kinetic solubility of over 51.8 µg/mL.

Regarding `O=C(CCNC(=O)c1ccco1)Nc1ccc(OC(F)F)cc1`, the kinetic solubility was found to be 43.6 µg/mL (≈ 134 µM).

Compound `Cc1ccc(NC(=O)C2CC(=O)N(C(C)C)C2)cc1Cl` (stereo unspecified) showed a solubility (kinetic) of over 44.2 µg/mL.

`COc1ccc(N2CCN(CC(=O)c3c[nH]c4ccccc34)CC2)cc1` had a kinetic solubility of 1.9 µg/mL (≈ 5.44 µM).

Take `N#Cc1ccc(C(=O)NC23CC4CC(CC(C4)C2)C3)cc1`: the solubility (kinetic) was found to be 0.8 µg/mL (≈ 2.85 µM).

As for `O=C(Nc1ccncc1)c1cc2ccccc2cc1O`, the kinetic solubility came out at 5.6 µg/mL (≈ 21.2 µM).

`CN(C)c1ccc(/C=C2\C(=O)NC(=O)N(CCc3ccc(F)cc3)C2=O)cc1`: the kinetic solubility was 11.2 µg/mL (≈ 29.4 µM).

In turn, `O=C(CN1C(=O)c2ccccc2C1=O)NCc1ccc(C(=O)O)cc1` returned a kinetic solubility of over 50.7 µg/mL.

With `c1ccc2sc(C3CCNCC3)nc2c1`, the solubility (kinetic) is over 32.7 µg/mL.

`CC(C)CC(=O)NC(C)C(c1cccs1)N1CCOCC1` (stereo unspecified): the kinetic solubility was found to be 45.4 µg/mL (≈ 146 µM).

The compound `CCN(CC)C(=O)COc1ccc2c(-c3ccccc3)cc(=O)oc2c1` showed a kinetic solubility of 40.7 µg/mL (≈ 116 µM).

The compound `O=C(NCCO)/C(=C/c1ccco1)NC(=O)c1ccco1` came in with a solubility (kinetic) of 43.3 µg/mL (≈ 149 µM).

Turning to `Cc1onc(-c2ccccc2)c1C(=O)N=C(N)c1ccc(C(F)(F)F)cc1`, the kinetic solubility is under 0.3 µg/mL.

`COC(=O)C1CCN(c2cnccn2)CC1` gave a kinetic solubility of over 33.2 µg/mL.

Take `COc1ccc(CNC(=O)CCc2c[nH]c3ccccc23)cc1`: the kinetic solubility amounted to 24.6 µg/mL (≈ 79.8 µM).

`Cn1cc(C(=O)NC2CC2)c2ccccc21` gave a kinetic solubility of 31.9 µg/mL (≈ 149 µM).

`O=C(c1cccnc1)N1CCCC(Nc2ccc(F)cc2)C1` (stereo unspecified) had a kinetic solubility of 41.6 µg/mL (≈ 139 µM).

Consider `Cc1ccc(S(=O)(=O)NCc2ccccn2)c(C)c1`, for which the solubility (kinetic) is over 41.5 µg/mL.

As to `CCN(C(=O)COC(=O)CN1C(=O)c2ccccc2C1=O)c1ccccc1`, the solubility (kinetic) is over 55 µg/mL.

In turn, `CC1CCCCC1NC(=S)NC(=O)c1ccccc1Cl` (stereo unspecified) showed a solubility (kinetic) of 1.6 µg/mL (≈ 5.15 µM).

`CCC(=O)Nc1cc(-c2nc3ncccc3o2)ccc1Cl`: the kinetic solubility came to 13.8 µg/mL (≈ 45.7 µM). Compared with the last compound, the solubility kinetic is about 8.6-fold higher.

`Cc1cc(C(=O)Nc2ccccc2)oc(=O)c1` had a solubility (kinetic) of 25.9 µg/mL (≈ 113 µM).

Consider `COc1ccc(NS(=O)(=O)c2cccc(C(=O)O)c2)cc1S(=O)(=O)N1CCCCC1`, for which the kinetic solubility is over 68.2 µg/mL.

`O=C(N/C(=C\c1ccccc1)C(=O)N1CCCCC1)c1ccco1`: the kinetic solubility was 42.4 µg/mL (≈ 131 µM).

The compound `CSc1ccc(/C=C2\NC(=O)NC2=O)cc1` displayed a kinetic solubility of 9.8 µg/mL (≈ 41.8 µM). Compared with the last compound, the solubility kinetic is about 4.3-fold lower.

On to `Cc1[nH]c2ccccc2c1C(=O)CN1CC(C)CC(C)C1` (stereo unspecified), for which the kinetic solubility is over 42.7 µg/mL.

In turn, `Cc1ccc(-n2c(CNCc3ccc(F)cc3)nc3ccccc3c2=O)cc1` showed a solubility (kinetic) of 35.1 µg/mL (≈ 94 µM).

`CN(CC(=O)Nc1cccc(F)c1)CC(=O)Nc1ccccc1[N+](=O)[O-]` returned a kinetic solubility of 49.7 µg/mL (≈ 138 µM).

On to `O=C(Nc1ccccc1)Oc1ccccc1N1CCOCC1`, for which the kinetic solubility amounted to 31.9 µg/mL (≈ 107 µM).

Regarding `O=c1c2ccc(Cl)cc2nc2n1CC/C2=C\c1cccc(O)c1`, the solubility (kinetic) worked out at 2.9 µg/mL (≈ 8.93 µM). Against the preceding compound, the solubility kinetic is about 11-fold lower.

Turning to `Cn1c(=O)c2c(O)c(C=NCc3ccccc3)c(=O)n(C)c2n(C)c1=O`, the kinetic solubility was found to be 51.3 µg/mL (≈ 145 µM).

Turning to `CC(=O)N(Cc1ccccc1)c1c(N)nc(N)[nH]c1=O`, the solubility (kinetic) is over 41 µg/mL.

Take `Cc1ccn2cc(-c3ccc(O)c(O)c3)nc2c1.Cl`: the kinetic solubility came out at 17.8 µg/mL.

For the compound `COC(=O)NC1c2ccccc2Oc2ccccc21`, the kinetic solubility was 0.7 µg/mL (≈ 2.74 µM).

`COc1ccc(-c2nc3n(c2C)Cc2ccccc2-3)cc1` showed a kinetic solubility of 16.3 µg/mL (≈ 59 µM).

On to `Cc1ccc(N2C(=O)CC(C)CC2=O)cc1`, for which the solubility (kinetic) was over 32.6 µg/mL.

In turn, `CCC(=O)c1cn(Cc2ccccc2)c2ccccc12` yielded a solubility (kinetic) of 1 µg/mL (≈ 3.8 µM).

The compound `CC(C)(C)c1ccc(C(=O)NC2CCS(=O)(=O)C2)cc1` (stereo unspecified) had a solubility (kinetic) of over 44.3 µg/mL.

With `COc1ccc(Cl)cc1Nc1nc(-c2cccnc2)cs1`, the solubility (kinetic) is under 0.2 µg/mL.

In the case of `O=C(Nc1ccc(C(=O)Nc2ccccc2Cl)cc1)c1cccnc1`, the solubility (kinetic) came out at 2.3 µg/mL (≈ 6.54 µM).

On to `COc1ccc(OC)c(NC(=O)Cc2cccs2)c1`, for which the kinetic solubility was found to be 30.4 µg/mL (≈ 110 µM).

`CN(c1ccccc1)c1nc(N)c([N+](=O)[O-])c(N2CCCCC2)n1`: the solubility (kinetic) amounted to 13 µg/mL (≈ 39.6 µM).

Regarding `Cc1nc(NC(=O)c2ccco2)sc1C(=O)O`, the solubility (kinetic) is over 37.8 µg/mL.

The compound `CC(C)=C(NC(=O)c1ccccc1)C(=O)NCc1ccccc1` gave a kinetic solubility of over 46.3 µg/mL.

`O=C(COC(=O)c1ccccc1)Nc1ncc([N+](=O)[O-])s1` had a solubility (kinetic) of over 46.1 µg/mL.

With `O=C(Nc1cccc2ncccc12)c1ccc([N+](=O)[O-])o1`, the solubility (kinetic) is over 42.5 µg/mL.

In turn, `Cc1c(NC(=O)C(C)C)cccc1-c1nc2ncccc2o1` yielded a kinetic solubility of over 44.3 µg/mL.

Consider `COc1ccc(NC(=O)C(Cc2cc(C)cc(C)c2)C(C)C(=O)O)cc1` (stereo unspecified), for which the solubility (kinetic) amounted to 36.5 µg/mL (≈ 103 µM).

On to `O=C(CN1C(=O)NC(c2ccccc2)(c2ccccc2)C1=O)Nc1ccc(N2CCOCC2)cc1`, for which the kinetic solubility is 2.6 µg/mL (≈ 5.53 µM).
